Data: the supplement of paper PMC5908809

What was measured:
[1] = system: normal primary NK cells, pool 1 (3 donors) (IL-2 2.5 ng/mL); test: percent inhibition of viability; higher = more inhibition; details: 72 h
[2] = system: normal primary NK cells, pool 3 (3 donors) (IL-2 2.5 ng/mL); test: as above; details: 72 h
[3] = system: normal primary NK cells, pool 1 (3 donors), resting (IL-2 0 ng/mL); test: as above; details: 72 h
[4] = system: NKL (IL-2 2.5 ng/mL); test: as above; details: 72 h
[5] = system: NK-YS (IL-2 2.5 ng/mL); test: as above; details: 72 h
[6] = system: SNK-6 (IL-2 2.5 ng/mL); test: as above; details: 72 h
[7] = system: IMC-1 (IL-2 20 ng/mL); test: as above; details: 72 h
[8] = system: KAI3 (IL-2 2.5 ng/mL); test: as above; details: 72 h
[9] = system: DERL-7 (IL-2 2.5 ng/mL); test: as above; details: 72 h
[10] = system: KHYG-1 (IL-2 2.5 ng/mL); test: as above; details: 72 h
[11] = system: NK-92 (IL-2 2.5 ng/mL); test: as above; details: 72 h
[12] = system: normal primary NK cells, pool 2 (3 donors) (IL-2 2.5 ng/mL); test: as above; details: 72 h
[13] = system: YT (IL-2 2.5 ng/mL); test: as above; details: 72 h
[14] = system: normal NK cells expanded with K562-aAPC; test: as above; details: 72 h, IL-2 2.5 ng/mL
Protocol: (§1)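 Drug sensitivity and resistance testing on K562-aAPC-expanded normal NK cells: 5 concentrations (10-fold steps over a 10,000-fold range), 72 h at 37 °C, viability by CellTiter-Glo normalised to DMSO and benzethonium chloride controls; DSS from the fitted curve.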

[15] = system: normal NK cells expanded with K562-aAPC; test: drug sensitivity score (DSS) (DSS units); higher = more sensitive; extreme values may be limits of the assay; details: 72 h; IL-2 2.5 ng/mL
Protocol: as §1

[16] = system: normal primary NK cells, pool 1 (3 donors) (IL-2 2.5 ng/mL); test: as above; details: 72 h
[17] = system: normal primary NK cells, pool 3 (3 donors) (IL-2 2.5 ng/mL); test: as above; details: 72 h
[18] = system: normal primary NK cells, pool 1 (3 donors), resting (IL-2 0 ng/mL); test: as above; details: 72 h
[19] = system: NKL (IL-2 2.5 ng/mL); test: as above; details: 72 h
[20] = system: NK-YS (IL-2 2.5 ng/mL); test: as above; details: 72 h
[21] = system: SNK-6 (IL-2 2.5 ng/mL); test: as above; details: 72 h
[22] = system: IMC-1 (IL-2 20 ng/mL); test: as above; details: 72 h
[23] = system: KAI3 (IL-2 2.5 ng/mL); test: as above; details: 72 h
[24] = system: DERL-7 (IL-2 2.5 ng/mL); test: as above; details: 72 h
[25] = system: KHYG-1 (IL-2 2.5 ng/mL); test: as above; details: 72 h
[26] = system: NK-92 (IL-2 2.5 ng/mL); test: as above; details: 72 h
[27] = system: normal primary NK cells, pool 2 (3 donors) (IL-2 2.5 ng/mL); test: as above; details: 72 h
[28] = system: YT (IL-2 2.5 ng/mL); test: as above; details: 72 h

CO[C@@H]1[C@H](N(C)C(=O)c2ccccc2)C[C@H]2O[C@]1(C)n1c3ccccc3c3c4c(c5c6ccccc6n2c5c31)C(=O)NC4 [Midostaurin] (max concentration tested 10000 nM)
percent inhibition of viability [%]
Details | 1 nM | 10 nM | 100 nM | 1000 nM | 10000 nM
[1] | -13 | -12.2 | 25.8 | 79.6 | 88.2
[2] | -7.31 | -6.65 | 1.51 | 63.5 | 83
[3] | -2.01 | -12 | 7.17 | 29 | 62.3
[4] | -4.72 | -9.81 | 28.3 | 79.7 | 77.5
[5] | 1.77 | 2.14 | 11.2 | 65.2 | 78.6
[6] | -0.77 | 8.75 | 42.7 | 95.2 | 97.3
[7] | -6.1 | -6.16 | -11.8 | 87.9 | 100
[8] | 0.66 | 3.14 | 21.1 | 89.4 | 91.2
[9] | 2.78 | 1.24 | 18.5 | 93.3 | 98.4
[10] | 2.07 | -3.07 | 17 | 105 | 99.1
[11] | 7.3 | 4.05 | 7.33 | 80.9 | 89.5
[12] | -14.8 | -10.1 | -0.23 | 76.7 | 85.8
[13] | 4.08 | 0.3 | 9.56 | 51.4 | 69.3
[14] | -0.81 | -0.07 | 14.2 | 93.4 | 95.7

Details | drug sensitivity score
[15] | 19.3
[16] | 18
[17] | 12.1
[18] | 6.7
[19] | 18.5
[20] | 13.5
[21] | 22.2
[22] | 15.6
[23] | 19.3
[24] | 19.5
[25] | 20.9
[26] | 15.8
[27] | 14
[28] | 10.8

CNC(=O)c1nn(C)c2c1C(C)(C)Cc1cnc(Nc3ccc(N4CCN(C)CC4)cc3)nc1-2 [Milciclib] (max concentration tested 10000 nM)
percent inhibition of viability [%]
Details | 1 nM | 10 nM | 100 nM | 1000 nM | 10000 nM
[1] | -4.67 | -0.64 | -2.17 | 41.2 | 94.1
[2] | -13.5 | -12.3 | -7.15 | 27.3 | 98.8
[3] | -2.66 | 2.94 | 14.9 | 61.7 | 88.7
[4] | -13.6 | -18.8 | -12.2 | 37.9 | 106
[5] | -3.1 | -3.45 | 7.23 | 40.2 | 103
[6] | 2.94 | -5.15 | -12.8 | 17.8 | 93.1
[7] | -3.68 | -8.88 | -4.95 | -5.54 | 101
[8] | 2.07 | -4.15 | 13.3 | 40 | 103
[9] | 3.27 | -10.3 | 4.85 | 67.1 | 98.4
[10] | 0.72 | 0.82 | 16.2 | 88.3 | 108
[11] | -4.06 | -2.4 | 1.56 | 39 | 101
[12] | -6.1 | -7.12 | 7.61 | 55.9 | 96.4
[13] | 1.63 | 0.13 | -0.36 | 21 | 106
[14] | 4.02 | -0.67 | 11 | 58 | 101

Details | drug sensitivity score
[15] | 12.8
[16] | 10.6
[17] | 9.53
[18] | 13.5
[19] | 10.7
[20] | 10.9
[21] | 8.04
[22] | 5.2
[23] | 10.3
[24] | 13.6
[25] | 18.2
[26] | 10.8
[27] | 12.2
[28] | 8.93

CO[C@@]12[C@H](COC(N)=O)C3=C(C(=O)C(C)=C(N)C3=O)N1C[C@@H]1N[C@@H]12 [Mitomycin C] (max concentration tested 10000 nM)
percent inhibition of viability [%]
Details | 1 nM | 10 nM | 100 nM | 1000 nM | 10000 nM
[1] | -7.25 | 13.3 | 6.96 | 7.9 | 35
[2] | -2.62 | 8.35 | 8.1 | 31.6 | 94.6
[3] | 3.33 | 21.6 | 12.1 | 19.2 | 72.1
[4] | -16.1 | -7.78 | 25.9 | 99.1 | 99.9
[5] | -3.94 | -3.78 | 7.6 | 89.1 | 101
[6] | 8 | -22.7 | -15.3 | 85.5 | 90
[7] | -2.35 | 2.42 | 2.75 | 5.66 | 98.4
[8] | -6 | 1.39 | 6.47 | 42.2 | 90.1
[9] | -3.54 | 4.32 | -0.35 | -4.88 | 11.3
[10] | -11.3 | -10.2 | -3.76 | 90.6 | 106
[11] | -6.49 | -1.15 | -5.66 | 25.2 | 96
[12] | -2.16 | 4.57 | 8.07 | 44.3 | 91.9
[13] | -7.65 | -5.91 | -4.19 | -0.39 | 73.2
[14] | -6.75 | -6.89 | -6.31 | 1.66 | 36.7

Details | drug sensitivity score
[15] | 1.99
[16] | 2.74
[17] | 9.16
[18] | 6.45
[19] | 21.9
[20] | 17.2
[21] | 14.8
[22] | 6.29
[23] | 9.91
[24] | 0
[25] | 16.3
[26] | 9.13
[27] | 10.3
[28] | 4.01
